Experimental data as given in patent publication US20250382565A1, “INTELLIGENT SUPERVISION SYSTEM AND METHOD FOR BACTERIAL CULTURE EQUIPMENT BASED ON BIG DATA” (Suzhou Foo-Chi Biomedical Technology Co., Ltd., priority 2024, published 2025).

Tested on: Staphylococcus aureus ATCC 29213
Assay: MIC of the antibiotic against the strain to be tested by E-test
Assay type: cell-based
Details: ATCC29213, cefuroxime E-test strip, overnight culturing, CLSI standard operation
Procedure: Test of the MIC of the antibiotic against the strain to be tested: The strain ATCC 29213 for test is incubated onto a culture medium plate, and a bacterial colony grows after 18 to 24 h for future use. Normal saline (a phosphate buffer solution, or the like) is prepared and is then separately put into turbidimeter tubes, each of which has a capacity of 9 mL, and sterilization treatment is carried out (at 121° C. for 15 to 30 min). A particular number of bacteria are added into the turbidimeter tubes to make bacterial suspensions, and the MacFarland turbidity is adjusted to 0.5 to 1 McFarland. According to a CLSI standard operation and use guidelines of E-test, a swab is dipped into each bacterial suspension, and is applied to a culture medium. After the swab is dried for 15 to 20 min, a cefuroxime E-test strip is applied to a surface of a bacterial moss for overnight culturing. A scale at an intersection of an edge of an inhibition zone and the strip is read. The scale is an MIC value of ATCC 29213 against the cefuroxime, which is 2 ug/mL.

Q: With CO/N=C(\C(=O)N[C@@H]1C(=O)N2C(C(=O)O)=C(COC(N)=O)CS[C@H]12)c1ccco1 [cefuroxime] as the compound, how does the MIC read?
A: 2 µg/mL
